Test results taken from PubChem BioAssay (NCI).
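Briefly, cells in 96-well plates were exposed to five compound concentrations for 48 h, and endpoints were estimated by linear interpolation. TGI: total growth inhibition.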

How the values were obtained:
Experiment in all cases: NCI tumour cell line growth inhibition, 48 h
LOX IMVI melanoma = test system: LOX IMVI melanoma
PC-3 prostate = test system: PC-3 prostate
SF-268 CNS = test system: SF-268 CNS
SNB-75 CNS = test system: SNB-75 CNS
HCC-2998 colon = test system: HCC-2998 colon
BT-549 breast = test system: BT-549 breast
HCT-15 colon = test system: HCT-15 colon
UO-31 renal = test system: UO-31 renal
RXF 393 renal = test system: RXF 393 renal
HT29 colon = test system: HT29 colon
MOLT-4 leukemia = test system: MOLT-4 leukemia
MCF7 breast = test system: MCF7 breast
A498 renal = test system: A498 renal
UACC-62 melanoma = test system: UACC-62 melanoma
CCRF-CEM leukemia = test system: CCRF-CEM leukemia
IGROV1 ovarian = test system: IGROV1 ovarian
NCI/ADR-RES ovarian = test system: NCI/ADR-RES ovarian
SK-OV-3 ovarian = test system: SK-OV-3 ovarian
NCI-H460 lung = test system: NCI-H460 lung
SK-MEL-28 melanoma = test system: SK-MEL-28 melanoma
OVCAR-5 ovarian = test system: OVCAR-5 ovarian
K-562 leukemia = test system: K-562 leukemia
EKVX NSCLC = test system: EKVX NSCLC
TK-10 renal = test system: TK-10 renal
SW-620 colon = test system: SW-620 colon
OVCAR-8 ovarian = test system: OVCAR-8 ovarian
HS 578T breast = test system: HS 578T breast
SK-MEL-5 melanoma = test system: SK-MEL-5 melanoma
NCI-H23 lung = test system: NCI-H23 lung
SN12C renal = test system: SN12C renal
SNB-19 CNS = test system: SNB-19 CNS
U251 CNS = test system: U251 CNS
ACHN renal = test system: ACHN renal
OVCAR-4 ovarian = test system: OVCAR-4 ovarian
NCI-H226 lung = test system: NCI-H226 lung
T-47D breast = test system: T-47D breast
SR leukemia = test system: SR leukemia
M14 melanoma = test system: M14 melanoma
CAKI-1 renal = test system: CAKI-1 renal
UACC-257 melanoma = test system: UACC-257 melanoma
SF-539 CNS = test system: SF-539 CNS
SK-MEL-2 melanoma = test system: SK-MEL-2 melanoma
OVCAR-3 ovarian = test system: OVCAR-3 ovarian
RPMI-8226 leukemia = test system: RPMI-8226 leukemia
KM12 colon = test system: KM12 colon
COLO 205 colon = test system: COLO 205 colon
786-0 renal = test system: 786-0 renal
MDA-MB-435 = test system: MDA-MB-435
MALME-3M melanoma = test system: MALME-3M melanoma
NCI-H522 lung = test system: NCI-H522 lung
HCT-116 colon = test system: HCT-116 colon
DU-145 prostate = test system: DU-145 prostate
MDA-MB-231 breast = test system: MDA-MB-231 breast
HL-60(TB) leukemia = test system: HL-60(TB) leukemia
A549 NSCLC = test system: A549 NSCLC
SF-295 CNS = test system: SF-295 CNS
HOP-62 NSCLC = test system: HOP-62 NSCLC

Measured: TGI

Clc1ccc2sc(-n3ccc4ccccc43)nc2c1
> 100 µM: LOX IMVI melanoma | PC-3 prostate | SF-268 CNS | SNB-75 CNS | HCC-2998 colon | BT-549 breast | HCT-15 colon | UO-31 renal | HT29 colon | MOLT-4 leukemia | MCF7 breast | A498 renal | UACC-62 melanoma | CCRF-CEM leukemia | IGROV1 ovarian | NCI/ADR-RES ovarian | SK-OV-3 ovarian | NCI-H460 lung | SK-MEL-28 melanoma | OVCAR-5 ovarian | K-562 leukemia | EKVX NSCLC | TK-10 renal | SW-620 colon | OVCAR-8 ovarian | HS 578T breast | SK-MEL-5 melanoma | NCI-H23 lung | SN12C renal | SNB-19 CNS | U251 CNS | ACHN renal
69.3 µM: RXF 393 renal

FC(F)(F)c1ccccc1N1CCN(c2nc(-c3cccs3)nc3ccc(Br)cc23)CC1
83.7 µM: KM12 colon
74.1 µM: SK-MEL-2 melanoma
94.5 µM: CAKI-1 renal
74 µM: MDA-MB-231 breast
34.5 µM: RPMI-8226 leukemia
76.2 µM: OVCAR-3 ovarian
63.3 µM: MDA-MB-435
39.8 µM: CCRF-CEM leukemia
55.9 µM: MALME-3M melanoma
17.5 µM: MCF7 breast
46.3 µM: UACC-62 melanoma
30.9 µM: SK-MEL-5 melanoma
25 µM: HCC-2998 colon
97.3 µM: TK-10 renal
> 100 µM: LOX IMVI melanoma | SF-268 CNS | SNB-75 CNS | BT-549 breast | OVCAR-4 ovarian | NCI-H226 lung | HCT-15 colon | UO-31 renal | T-47D breast | SR leukemia | HT29 colon | M14 melanoma | UACC-257 melanoma | SF-539 CNS | MOLT-4 leukemia | A498 renal | IGROV1 ovarian | NCI/ADR-RES ovarian | 786-0 renal | SK-OV-3 ovarian | NCI-H460 lung | SK-MEL-28 melanoma | OVCAR-5 ovarian | NCI-H522 lung | HCT-116 colon | K-562 leukemia | EKVX NSCLC | SW-620 colon | DU-145 prostate | OVCAR-8 ovarian | HS 578T breast | HL-60(TB) leukemia | NCI-H23 lung | SN12C renal | SNB-19 CNS | U251 CNS | A549 NSCLC | SF-295 CNS | ACHN renal | HOP-62 NSCLC
49.5 µM: PC-3 prostate
65.1 µM: COLO 205 colon
